Results taken from patent publication US20260042754A1, “Substituted Bicyclic Heteroaryl Sulfonamide Derivatives for the Treatment of Cancer” (NODUS ONCOLOGY LIMITED, priority 2022, published 2026).
Read-outs that look alike come from different tables or passages of the source.

Legend:
[1] = system: RMUG-S mucinous cystadenocarcinoma ovarian cancer cell line; assay: Cell proliferation assay (CellTiter-Glo), RMUG-S, Examples 1-11; format: cell-based; conditions: Examples 1-11: 96-well, 5000 cells per well, 120 hours; highest concentration tested 9000 nM; read-out: RMUG-S GI50 (high PARG dependency)
Method: For Examples 1-11, RMUG-S mucinous cystadenocarcinoma (JCRB, #IF050320) and TOV-112D endometrioid adenocarcinoma (ATCC, #CRL-11731) ovarian cancer cell lines were grown in DMEM/F-12 with glutamine (BioConcept, #1-26F09-I) and RPMI with glutamine (BioConcept, #1-41F03-1), respectively, and both media containing 10% FBS (Sigma-Aldrich, #F9665) and supplemented with 1% Penicillin-Streptomycin (BioConcept, #4-01F00-H) using standard cell culture techniques. RMUG-S and TOV-112D ovarian cancer cell lines were selected as highly PARG dependent and having low PARG dependency, respectively, based on their publically available PARG shRNA (short hairpin ribonucleic acid) dropout profiles in the Cancer Dependency Map (DepMap) data portal (Broad Institute DepMap Project; Cheung H W et al, Proceedings of the National Academy of Sciences 2011; Cowley G S et al, Scientific Data 2014; McDonald E R et al, Cell 2017). PARG dependency of these cell lines was independently verified and confirmed by genetic and pharmacological means using shRNA-mediated PARG depletion, and the previously reported cell-permeable quinazolinedione PARG inhibitor tool compound PDD00017273 (Pillay N et al, Cancer Cell 2019). Thus, growth inhibition of the RMUG-S cell line serves as a functional on-target inhibition readout, while observing potent growth inhibition of TOV-112D is indicative of compound off-target activity. Cells were seeded in 96-well plates with clear bottom (Huberlab, #7.655 090) at a seeding density of 5000 cells per well in 100 μL of medium, and the plates were incubated overnight at 37° C. with 5% CO2 prior to treatment with compounds. Experimental compounds were prepared in DMSO at a concentration of 10 mM. Compounds were distributed at the desired final concentrations using the Tecan D300e Digital Dispenser (TECAN) and normalized to the highest DMSO volume. The plates were incubated for 120 hours and cell numbers were then measured using CellTiter-Glo® (Promega, #G9241), essentially as recommended by the manufacturer. Briefly, for the CellTiter-Glo® proliferation readout, 50 μL of the reconstituted CellTiter-Glo® 2.0 Reagent were added to 100 μL of medium containing cells. The plates were incubated at room temperature for 10 minutes to stabilize the luminescent signal, and luminescence intensity signals were then measured with a Synergy 4™ microplate reader (BioTek Instruments). Relative proliferation values were calculated by normalizing the raw data using DMSO-treated cells (100% proliferation) and the signals obtained from cells that were evaluated at the time of compound addition (0% proliferation). The concentration-response data were fitted to a sigmoidal 4-parameter logistic model with the maximum constrained to 100%. GI50 values were calculated from the curves as the compound concentrations reducing proliferation to 50%.

NCI-H1650 = assay: Modified cell proliferation assay (CellTiter-Glo), NCI-H1650; format: cell-based; conditions: modified protocol, 384-well, 300 cells per well, 120 h, highest concentration tested 30000 nM, read-out: NCI-H1650 GI50 (high PARG dependency)
How it was run: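 NCI-H1650 or RMUG-S cells seeded at 300 cells/well in RPMI1640 with 10% FCS, compounds added after 24 h, then 120 h at 37 °C/5% CO2. Viability read by CellTiter-Glo luminescence; IC50 from fitted dose-response inflection point. Z′≥0.5 required.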

Row | Compound | GI50 [1] | GI50 (NCI-H1650; Homo sapiens, NCI-H1650) | GI50 (NCI-H1650)
1 | CO/N=c1\[nH]c2c(-c3ccc(C(=O)N(C)C)cc3)cc(S(=O)(=O)NC3(C)CC3)cc2c(=O)n1Cc1cnn(C)c1 [Example 5, 4-[2-methoxyimino-6-[(1-methylcyclopropyl)sulfamoyl]-3-[(1-methylpyrazol-4-yl)methyl]-4-oxo-1H-quinazolin-8-yl]-N,N-dimethyl-benzamide] | 500 to 2000 nM | > 2000 nM | –
2 | CO/N=c1\[nH]c2ccc(S(=O)(=O)NC3(C)CC3)cc2c(=O)n1Cc1cnc(C)s1 [Example 1, 2-methoxyimino-N-(1-methylcyclopropyl)-3-[(2-methylthiazol-5-yl)methyl]-4-oxo-1H-quinazoline-6-sulfonamide] | 500 to 2000 nM | 500 to 2000 nM | –
3 | Cc1nc(C)c(CO/N=c2\[nH]c3ccc(S(=O)(=O)NC4(C)CC4)cc3c(=O)n2Cc2cnn(C)c2)s1 [Example 3, 2-[(2,4-dimethylthiazol-5-yl)methoxyimino]-N-(1-methylcyclopropyl)-3-[(1-methylpyrazol-4-yl)methyl]-4-oxo-1H-quinazoline-6-sulfonamide] | 2000 to 9000 nM | > 2000 nM | –
4 | CON=c1[nH]c2c(N3CCN(C(=O)C4(C)CC4)[C@H](C)C3)cc(S(=O)(=O)NC3(C)CC3)cc2c(=O)n1Cc1cnn(C)c1 [Example 8, 2-methoxyimino-N-(1-methylcyclopropyl)-3-[(1-methylpyrazol-4-yl)methyl]-4-oxo-8-[(3R)-3-methyl-4-(1-methylcyclopropanecarbonyl)piperazin-1-yl]-1H-quinazoline-6-sulfonamide] | < 500 nM | – | < 500 nM
5 | CO/N=c1\[nH]c2c(N3CCN[C@H](C)C3)cc(S(=O)(=O)NC3(C)CC3)cc2c(=O)n1Cc1cnn(C)c1 [Example 7, 2-methoxyimino-N-(1-methylcyclopropyl)-3-[(1-methylpyrazol-4-yl)methyl]-4-oxo-8-[(3R)-3-methylpiperazin-1-yl]-1H-quinazoline-6-sulfonamide] | 500 to 2000 nM | < 500 nM | –
6 | CO/N=c1\[nH]c2ccc(S(=O)(=O)NC3(C)COC3)cc2c(=O)n1Cc1cnn(C)c1 [Example 2, 2-methoxyimino-N-(3-methyloxetan-3-yl)-3-[(1-methylpyrazol-4-yl)methyl]-4-oxo-1H-quinazoline-6-sulfonamide] | 2000 to 9000 nM | 500 to 2000 nM | –
